SMILES strings stand for the structures.

The target in this assay is T1, human FAAH (Homo sapiens, UniProt O00519).
T1 construct: host or cells: COS-7 cells, transient transfection; 13,000 g membrane fraction solubilised in 1% Triton X-100
T1 sequence (O00519 1-579): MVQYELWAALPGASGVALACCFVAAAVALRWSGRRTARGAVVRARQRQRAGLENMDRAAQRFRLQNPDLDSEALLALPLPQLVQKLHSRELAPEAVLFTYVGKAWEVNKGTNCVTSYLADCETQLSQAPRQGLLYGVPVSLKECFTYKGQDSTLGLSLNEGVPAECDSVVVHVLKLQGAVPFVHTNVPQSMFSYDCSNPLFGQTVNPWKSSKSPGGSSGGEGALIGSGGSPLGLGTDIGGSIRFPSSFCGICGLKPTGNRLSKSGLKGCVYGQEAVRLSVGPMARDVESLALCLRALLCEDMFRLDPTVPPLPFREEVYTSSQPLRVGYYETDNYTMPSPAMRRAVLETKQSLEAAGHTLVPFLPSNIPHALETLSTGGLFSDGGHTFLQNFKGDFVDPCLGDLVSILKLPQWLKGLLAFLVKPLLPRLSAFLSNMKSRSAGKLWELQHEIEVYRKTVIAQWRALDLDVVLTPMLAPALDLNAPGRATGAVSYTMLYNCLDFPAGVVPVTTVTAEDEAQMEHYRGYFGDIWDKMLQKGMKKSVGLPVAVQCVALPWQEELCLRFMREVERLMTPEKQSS
The assay is described as follows: Inhibition of human FAAH (fluorescence assay, AMC arachidonoyl amide substrate). The assay is classed as biochemical. The settings on record: solubilized human FAAH from transfected COS-7 cells; 30 min preincubation; 20 μM AMC-arachidonoyl amide; 4 h at room temperature. The protocol:
Human FAAH Preparation: COS-7 cells were split the day before, 1:5 into 150 mm×25 mm cell culture dishes (Corning Inc., Cat. No. 430599). Transient transfection took place at 30-40% confluency according to FuGENE 6 Transfection Reagent (Roche, Cat. No. 11814 443 001).
Transfection Procedure: The FuGENE transfection 6 reagent (45 uL) was added to 1410 μL of media (DMEM, serum free without pen/strep) in a 15 mL conical tube and incubated at room temp for 5 minutes, followed by the addition of FAAH plasmid DNA (15 μg) (OriGene Cat. No. TC119221, Genbank Accession No. NM_001441.1, 0.67 ug/uL) and a further incubation of 15 minutes at room temperature. The resulting solution was added into one dish of 30-40% confluent COS-7 cells in a drop-wise manner. The COS-7 cell dish was subsequently incubated for 48 hours. The cells are then harvested.
Harvest procedure: Media was aspirated from the dishes and the cells rinsed with 10 mL PBS. The PBS was removed and 3 mL of PBS added to the dish. The dish was scraped to resuspend the cells, and the subsequent cell suspension collected into a 15 mL conical tube. The cells were pelleted by centrifugation at 1200 rpm for 5 minutes in a bench top centrifuge. PBS was removed and the cell pellet snap frozen in liquid nitrogen and stored at −80° C.
COS-7 cells—FAAH purification: • (1) Fractionation: Frozen cell pellets from transient transfections were thawed on ice and resuspended in 12.5 mM Hepes pH 8.0, 100 mM NaCl, 1 mM EDTA (10 mL/0.2 g cell pellet). The pellets were dounce homogenized and then sonicated to produce cell extract. The cell extract was subsequently centrifuged at 1000 g to remove cellular debris. The pellet was discarded and the supernatant centrifuged at 13,000 g for 20 minutes. The pellet contained membrane bound FAAH. The supernatant was discarded and the pellet resolubilized. • (2) Re-solubilization: The fraction of interest, (13,000 g, membrane fraction) was re-suspended in 2.3 mL re-suspension buffer (20 mM Hepes pH 7.8, 10% v/v Glycerol, 1 mM EDTA, 1% Triton X-100) and the sample incubated on ice for 1 hour and then centrifuged to remove any particulate matter. The supernatant containing solubilized human FAAH was aliquoted and snap frozen in liquid nitrogen and stored at 80° C. until use. • (3) Characterization: Protein Concentration determined by Bradford assay. • SDS gel and Western blot to confirm presence of FAAH • FAAH activity assay • Km determination—96-well assay • Linear dependence—96-well assay • Standard compound Ki determination—384-well assay
Human FAAH assay; Experimental Protocol: A 0.1 mg/mL Human FAAH solution was made up in FAAH reaction buffer, and 24 ul pipeted into a 384 well plate. To this was added 1 μL of a 3 fold serially diluted inhibitor from a DMSO stock solution. The FAAH solution and inhibitor were incubated for 30 minutes at room temperature. The FAAH reaction was initiated by the addition of 25 μL of 40 μM AMC Arachidonoyl Amide in FAAH reaction buffer, yielding a final reaction human FAAH preparation concentration of 0.05 mg/ml and AMC-Arachidonoyl substrate concentration of 20 μM, reaction volume 50 μL. The reaction was allowed to proceed for 4 hours at room temperature. The reaction was stopped by the addition of 25 μL 12 μM a-ketoheterocycle (Cayman Chemicals, catalogue #10435). The microtiter plate was read in the envision plate reader.
The raw fluorescence was plotted on the y axis and the inhibitor concentration on the x axis to give a dose response inhibition curve. The data was fitted to a single site competitive inhibition equation, fixing the Km for the human enzyme to 12 μM and 9 μM respectively.
One may read the Ki as a dissociation constant, usually derived from enzyme kinetics or from competition with a known ligand. Higher therefore signals a looser hold on the target. In turn, `BrC1=NOC2(CCCCC2)C1` [III-1] returned a Ki not above 100 nM. The same measure for `CC(C)(C)[C@H]1CC[C@]2(CC1)CC(Br)=NO2` [III-2a]: 100 to 1000 nM; for `CC(C)(C)[C@H]1CC[C@@]2(CC1)CC(Br)=NO2` [III-2b]: 100 to 1000 nM. The same measure for `BrC1=NO[C@]2(CC[C@H](c3ccccc3)CC2)C1` [III-3a]: not above 100 nM; for `BrC1=NO[C@]2(CC[C@@H](c3ccccc3)CC2)C1` [III-3b]: not above 100 nM; for `BrC1=NOC2(CCC3(CC2)OCCO3)C1` [III-4]: not below 1000 nM. The same measure for `BrC1=NO[C@]2(CC[C@H](COc3ccccc3)CC2)C1` [III-8a]: not above 100 nM. In turn, `BrC1=NO[C@]2(CC[C@@H](COc3ccccc3)CC2)C1` [III-8b] displayed a Ki not above 100 nM. With `CC(C)(C)OC(=O)N1CCC2(CC1)CC(Br)=NO2` [III-9], the Ki was not above 100 nM. In the case of `CC(C)(C)OC(=O)N1CCC[C@@]2(CC(Br)=NO2)C1` [III-10a], the Ki is not below 1000 nM. The same measure for `CC(C)(C)OC(=O)N1CCC[C@]2(CC(Br)=NO2)C1` [III-10b]: not below 1000 nM; for `CC(C)(C)OC(=O)N1CC[C@@]2(CC(Br)=NO2)C1` [III-11a]: 100 to 1000 nM. The same measure for `CC(C)(C)OC(=O)N1CC[C@]2(CC(Br)=NO2)C1` [III-11b]: 100 to 1000 nM; for `CC(C)(C)OC(=O)N1CCC[C@@]2(CC1)CC(Br)=NO2` [III-12a]: not above 100 nM.

`CC(C)(C)OC(=O)N1CCC[C@]2(CC1)CC(Br)=NO2` [III-12b] gave a Ki not above 100 nM. `CC(C)(C)OC(=O)N1C2CCC1CC1(CC(Br)=NO1)C2` (stereo not shown) [III-13a] yielded a Ki not below 1000 nM. The same measure for `BrC1=NOC2(CCNCC2)C1` [III-14]: not below 1000 nM.

As for `CC(=O)N1CCC2(CC1)CC(Br)=NO2` [III-15], the Ki is not below 1000 nM. The same measure for `O=C(c1ccccc1)N1CCC2(CC1)CC(Br)=NO2` [III-16]: not above 100 nM; for `O=S(=O)(c1ccccc1)N1CCC2(CC1)CC(Br)=NO2` [III-17]: 100 to 1000 nM; for `O=C(OCc1ccccc1)N1CCC2(CC1)CC(Br)=NO2` [III-18]: not above 100 nM.

`BrC1=NOC2(CCN(Cc3ccccc3)CC2)C1` [III-19] registered a Ki not above 100 nM. For the molecule `Clc1ccc(CN2CCC3(CC2)CC(Br)=NO3)cc1` [III-20], the Ki was not above 100 nM. The same measure for `COc1ccc(CN2CCC3(CC2)CC(Br)=NO3)cc1` [III-21]: not above 100 nM; for `BrC1=NOC2(CCN(Cc3ccccn3)CC2)C1` [III-22]: 100 to 1000 nM. The same measure for `BrC1=NOC2(CCN(Cc3cccnc3)CC2)C1` [III-23]: 100 to 1000 nM; for `Cc1ccc(CN2CCC3(CC2)CC(Br)=NO3)cc1` [III-24]: not above 100 nM. The same measure for `Clc1ccc(CN2CCC3(CC2)CC(Br)=NO3)cc1Cl` [III-25]: not above 100 nM; for `FC(F)(F)c1ccc(CN2CCC3(CC2)CC(Br)=NO3)cc1` [III-26]: not above 100 nM. In turn, `Clc1cccc(CN2CCC3(CC2)CC(Br)=NO3)c1` [III-27] had a Ki not above 100 nM. The same measure for `BrC1=NOC2(CCN(CCCc3ccccc3)CC2)C1` [III-28]: not above 100 nM.

For the molecule `BrC1=NOC2(CCN(CCc3ccccc3)CC2)C1` [III-29], the Ki was not above 100 nM. The same measure for `BrC1=NOC2(CCN(c3ccccc3)CC2)C1` [III-30]: 100 to 1000 nM; for `BrC1=NOC2(CCN(c3ccc(Br)cc3)CC2)C1` [III-31]: 100 to 1000 nM. Turning to `BrC1=NOC2(CCN(CC3CCCCC3)CC2)C1` [III-32], the Ki is not above 100 nM. The same measure for `CC(C)(C)CN1CCC2(CC1)CC(Br)=NO2` [III-33]: 100 to 1000 nM; for `O=C(CCc1ccccc1)N1CCC2(CC1)CC(Br)=NO2` [III-34]: not above 100 nM. The same measure for `COC(=O)N1CCC2(CC1)CC(Br)=NO2` [III-35]: 100 to 1000 nM; for `CC(C)COC(=O)N1CCC2(CC1)CC(Br)=NO2` [III-36]: not above 100 nM; for `O=C(Oc1ccccc1)N1CCC2(CC1)CC(Br)=NO2` [III-37]: not above 100 nM. The same measure for `O=C(OCC(Cl)(Cl)Cl)N1CCC2(CC1)CC(Br)=NO2` [III-38]: 100 to 1000 nM; for `COc1ccc(COC(=O)N2CCC3(CC2)CC(Br)=NO3)cc1` [III-39]: not above 100 nM; for `O=C(OCc1ccc(Cl)cc1)N1CCC2(CC1)CC(Br)=NO2` [III-40]: not above 100 nM. On to `BrC1=NOC2CC(OCc3ccccc3)CC12` (stereo not shown) [III-42], for which the Ki lay within 100 to 1000 nM. With `CC(C)(C)OC(=O)N1C[C@@H]2C(Br)=NO[C@@H]2C1` [III-43a], the Ki was in the range of 100 to 1000 nM.

In turn, `CC(C)(C)OC(=O)N1C[C@@H]2ON=C(Br)[C@@H]2C1` [III-43b] gave a Ki of 100 to 1000 nM.

The molecule `O=C(OCc1ccccc1)N1CC2ON=C(Br)C2C1` (stereo not shown) [III-44] returned a Ki not above 100 nM. In turn, `Clc1ccc(CN2CC3ON=C(Br)C3C2)cc1` (stereo not shown) [III-45] returned a Ki not below 1000 nM.

In turn, `O=C(OCc1ccccc1)N1CCC2(CC1)CC(Oc1cccnc1)=NO2` [III-46] showed a Ki not above 100 nM. The same measure for `CC(C)(C)OC(=O)N1CCC2(CC1)CC(Cl)=NO2` [III-47]: not above 100 nM; for `ClC1=NOC2(CCN(Cc3ccc(Cl)cc3)CC2)C1` [III-48]: not above 100 nM. The same measure for `C#Cc1ccc(CN2CCC3(CC2)CC(Br)=NO3)cc1` [III-49]: not above 100 nM.

`C#Cc1ccc(CN2CCC3(CC2)CC(Oc2cccnc2)=NO3)cc1` [III-50] came in with an inhibition constant (Ki) not above 100 nM. `Clc1ccc(CN2CCC3(CC2)CC(Oc2cccnc2)=NO3)cc1` [III-51] came in with a Ki not above 100 nM. The same measure for `Clc1ccc(CN2CCC3(CC2)CC(Oc2cncnc2)=NO3)cc1` [III-52]: not above 100 nM; for `O=C(CCc1ccccc1)N1CCC2(CC1)CC(Oc1cncnc1)=NO2` [III-54]: 100 to 1000 nM; for `O=C(c1ccc(Cl)cc1)N1CCC2(CC1)CC(Oc1cncnc1)=NO2` [III-55]: not above 100 nM. The same measure for `O=C(Nc1ccccc1)N1CCC2(CC1)CC(Oc1cncnc1)=NO2` [III-56]: not below 1000 nM.

Consider `O=C(CCCC(F)(F)F)N1CCC2(CC1)CC(Oc1cncnc1)=NO2` [III-57], for which the Ki is not below 1000 nM. The same measure for `CS(=O)(=O)c1ccc(OC2=NOC3(CCN(C(=O)c4ccccc4)CC3)C2)cn1` [III-58]: 100 to 1000 nM; for `O=C(OCc1ccccc1)N1CCC2(CC1)CC(N1CCCC1)=NO2` [III-59]: not below 1000 nM; for `C[N+]1(C2=NOC3(CCN(C(=O)OCc4ccccc4)CC3)C2)CCCC1` [III-60]: not below 1000 nM.

Turning to `BrC1=NO[C@]2(CCCc3cc(Oc4ccccc4)ccc32)C1` [III-62a], the Ki was not above 100 nM. The same measure for `BrC1=NO[C@@]2(CCCc3cc(Oc4ccccc4)ccc32)C1` [III-62b]: not above 100 nM.

These data come from US8765735B2, “Isoxazolines as inhibitors of fatty acid amide hydrolase” (Infinity Pharmaceuticals, Inc., priority 2009, dated 2014).
